Reference: ChEMBL document CHEMBL2086371, “4-quinolones as noncovalent inhibitors of high molecular mass penicillin-binding proteins” (ACS Med Chem Lett, 2012)
Calls of active or inactive are those of the source. The rule behind the calls is not given here.

Columns and labels:
[1] = Inhibition of bocillin FL binding to PBP 2 in Escherichia coli MM 294 membrane preparation by gel electrophoresis; type: cell membranes
Bacillus subtilis [2] = test: Inhibition of bocillin FL binding to Bacillus subtilis PBP1 at 1 mM by gel electrophoresis
Escherichia coli [3] = test: Inhibition of bocillin FL binding to PBP 5/6 in Escherichia coli MM 294 membrane preparation at 1 mM by gel electrophoresis; type: cell membranes
Bacillus subtilis [4] = test: Inhibition of bocillin FL binding to Bacillus subtilis PBP3/4 at 1 mM by gel electrophoresis
Bacillus subtilis [5] = test: Inhibition of bocillin FL binding to Bacillus subtilis PBP2 at 1 mM by gel electrophoresis
[6] = Inhibition of bocillin FL binding to PBP 4 in Escherichia coli MM 294 membrane preparation by gel electrophoresis; type: cell membranes
Escherichia coli [7] = test: Inhibition of bocillin FL binding to Escherichia coli MM 294 PBP by whole-cell assay
Bacillus subtilis [8] = test: Antibacterial activity against Bacillus subtilis after 20 hrs by tube dilution method; type: functional, organism-based
[9] = Inhibition of bocillin FL binding to PBP 3 in Escherichia coli MM 294 membrane preparation by gel electrophoresis; type: cell membranes
Escherichia coli [10] = test: Antibacterial activity against Escherichia coli MM 294 after 20 hrs by tube dilution method; type: functional; settings: MM 294, 20 h
[11] = Inhibition of bocillin FL binding to PBP 1a/1b in Escherichia coli MM 294 membrane preparation by gel electrophoresis; type: cell membranes
Bacillus subtilis [12] = test: Inhibition of bocillin FL binding to Bacillus subtilis PBP5 at 1 mM by gel electrophoresis
Escherichia coli [13] = test: Inhibition of bocillin FL binding to PBP 3 in Escherichia coli MM 294 membrane preparation at 1 mM by gel electrophoresis; type: cell membranes
Escherichia coli [14] = test: Inhibition of bocillin FL binding to PBP 2 in Escherichia coli MM 294 membrane preparation at 1 mM by gel electrophoresis; type: cell membranes
Escherichia coli [15] = test: Inhibition of bocillin FL binding to PBP 1a/1b in Escherichia coli MM 294 membrane preparation at 1 mM by gel electrophoresis; type: cell membranes
Escherichia coli [16] = test: Inhibition of bocillin FL binding to PBP 4 in Escherichia coli MM 294 membrane preparation at 1 mM by gel electrophoresis; type: cell membranes
[17] = Inhibition of bocillin FL binding to PBP 5/6 in Escherichia coli MM 294 membrane preparation by gel electrophoresis; type: cell membranes
[18] = Inhibition of bocillin FL binding to Escherichia coli MM 294 PBP2 by cell-free assay
Escherichia coli [19] = test: Inhibition of bocillin FL binding to Escherichia coli MM 294 PBP 5/6 by cell-free assay

Row | SMILES | inhibition (Bacillus subtilis [2]) | inhibition (Escherichia coli [3]) | inhibition (Bacillus subtilis [4]) | inhibition (Bacillus subtilis [5]) | inhibition (Escherichia coli [7]) | MIC (Escherichia coli [10]) [µM] | inhibition (Bacillus subtilis [12]) | inhibition (Escherichia coli [13]) | inhibition (Escherichia coli [19]) | Ki [1] [µM] | Ki [6] [µM] | Activity (Bacillus subtilis [8]) | Ki [9] [µM] | Ki [11] [µM] | inhibition (Escherichia coli [14]) | inhibition (Escherichia coli [15]) | inhibition (Escherichia coli [16]) | Ki [17] [µM] | Ki [18] [µM]
1 | O=C(O)Cc1c[nH]c2ccccc2c1=O | Active | inactive | Active | Active | inactive | > 1000 | Active | inactive |  | 250 | 29 | inactive |  | 300 |  |  |  |  | 
2 | Oc1ccnc2ccccc12 |  | inactive |  |  |  |  |  | inactive |  |  |  |  |  |  | inactive | inactive | inactive |  | 
3 | O=c1c(CCO)c[nH]c2ccccc12 | Active | inactive | Active | Active | inactive | > 1000 | Active |  |  | 27 | 3.1 | inactive | 70 | 38 |  |  |  |  | 
4 | O=c1cc(CO)[nH]c2ccccc12 | Active |  | Active | Active | inactive | > 1000 | Active |  | inactive | 26 | 4.8 | inactive | 27 | 27 |  |  |  | 220 | 64

Continued, in another order:

Row | inhibition (Bacillus subtilis [2]) | inhibition (Escherichia coli [3]) | inhibition (Bacillus subtilis [4]) | inhibition (Bacillus subtilis [5]) | inhibition (Escherichia coli [7]) | MIC (Escherichia coli [10]) [µM] | inhibition (Bacillus subtilis [12]) | inhibition (Escherichia coli [13]) | inhibition (Escherichia coli [19]) | SMILES | Ki [1] [µM] | Ki [6] [µM] | Activity (Bacillus subtilis [8]) | Ki [9] [µM] | Ki [11] [µM] | inhibition (Escherichia coli [14]) | inhibition (Escherichia coli [15]) | inhibition (Escherichia coli [16]) | Ki [17] [µM] | Ki [18] [µM]
5 | Active | inactive | Active | Active | inactive | > 1000 | Active |  |  | O=c1cc(CCCO)[nH]c2ccccc12 | 50 | 6.1 | inactive | 120 | 49 |  |  |  |  | 
6 | Active | inactive | Active | Active | inactive | > 1000 | Active | inactive |  | Oc1cccc2nccc(O)c12 |  |  | inactive |  |  | inactive | inactive | inactive |  | 
7 | Active | inactive | Active | Active | inactive | > 1000 | Active |  |  | O=C(O)c1cc(=O)c2ccccc2[nH]1 [TRANSTORINE] | 210 | 37 | inactive | 950 | 470 |  |  |  |  | 
8 | Active | inactive | Active | Active | inactive | > 1000 | Active | inactive |  | O=c1cc[nH]c2cc(O)ccc12 | 89 | 55 | inactive |  | 510 |  |  |  |  | 
9 | Active |  | Active | Active | inactive | > 1000 | Active |  |  | O=c1cc(CCO)[nH]c2ccccc12 | 26 | 7 | inactive | 120 | 37 |  |  |  | 520 | 
